Measurements taken from ChEMBL document CHEMBL5465560, “Selectivity Literature for EUbOPEN Chemogenomic Library” (2024).

Experiments:
[1] = target: Proto-oncogene tyrosine-protein kinase ROS (Homo sapiens) (UniProt P08922); assay: Selectivity interaction (ProQinase) EUB0000171b ROS1
[2] = target: Serine/threonine-protein kinase 32B (Homo sapiens) (UniProt Q9NY57); assay: Selectivity interaction (LanthaScreen Eu Kinase Binding Assay) EUB0001632a STK32B; details: at 10 µM
[3] = target: Mitogen-activated protein kinase kinase kinase 20 (Homo sapiens) (UniProt Q9NYL2); assay: Selectivity interaction (KinomeScan (DiscoverX)) EUB0001049a MAP3K20; details: at 1 µM
[4] = test system: Hepatocyte growth factor receptor (Homo sapiens), P08581 [Y1235D]; assay: Selectivity interaction (KinomeScan (DiscoverX)) EUB0001049a MET; details: at 1 µM
[5] = target: Microtubule-associated serine/threonine-protein kinase 1 (Homo sapiens) (UniProt Q9Y2H9); assay: Selectivity interaction (KinomeScan (DiscoverX)) EUB0000045b MAST1
Chain of Microtubule-associated serine/threonine-protein kinase 1 (Homo sapiens) (Q9Y2H9 whole entry, looked up): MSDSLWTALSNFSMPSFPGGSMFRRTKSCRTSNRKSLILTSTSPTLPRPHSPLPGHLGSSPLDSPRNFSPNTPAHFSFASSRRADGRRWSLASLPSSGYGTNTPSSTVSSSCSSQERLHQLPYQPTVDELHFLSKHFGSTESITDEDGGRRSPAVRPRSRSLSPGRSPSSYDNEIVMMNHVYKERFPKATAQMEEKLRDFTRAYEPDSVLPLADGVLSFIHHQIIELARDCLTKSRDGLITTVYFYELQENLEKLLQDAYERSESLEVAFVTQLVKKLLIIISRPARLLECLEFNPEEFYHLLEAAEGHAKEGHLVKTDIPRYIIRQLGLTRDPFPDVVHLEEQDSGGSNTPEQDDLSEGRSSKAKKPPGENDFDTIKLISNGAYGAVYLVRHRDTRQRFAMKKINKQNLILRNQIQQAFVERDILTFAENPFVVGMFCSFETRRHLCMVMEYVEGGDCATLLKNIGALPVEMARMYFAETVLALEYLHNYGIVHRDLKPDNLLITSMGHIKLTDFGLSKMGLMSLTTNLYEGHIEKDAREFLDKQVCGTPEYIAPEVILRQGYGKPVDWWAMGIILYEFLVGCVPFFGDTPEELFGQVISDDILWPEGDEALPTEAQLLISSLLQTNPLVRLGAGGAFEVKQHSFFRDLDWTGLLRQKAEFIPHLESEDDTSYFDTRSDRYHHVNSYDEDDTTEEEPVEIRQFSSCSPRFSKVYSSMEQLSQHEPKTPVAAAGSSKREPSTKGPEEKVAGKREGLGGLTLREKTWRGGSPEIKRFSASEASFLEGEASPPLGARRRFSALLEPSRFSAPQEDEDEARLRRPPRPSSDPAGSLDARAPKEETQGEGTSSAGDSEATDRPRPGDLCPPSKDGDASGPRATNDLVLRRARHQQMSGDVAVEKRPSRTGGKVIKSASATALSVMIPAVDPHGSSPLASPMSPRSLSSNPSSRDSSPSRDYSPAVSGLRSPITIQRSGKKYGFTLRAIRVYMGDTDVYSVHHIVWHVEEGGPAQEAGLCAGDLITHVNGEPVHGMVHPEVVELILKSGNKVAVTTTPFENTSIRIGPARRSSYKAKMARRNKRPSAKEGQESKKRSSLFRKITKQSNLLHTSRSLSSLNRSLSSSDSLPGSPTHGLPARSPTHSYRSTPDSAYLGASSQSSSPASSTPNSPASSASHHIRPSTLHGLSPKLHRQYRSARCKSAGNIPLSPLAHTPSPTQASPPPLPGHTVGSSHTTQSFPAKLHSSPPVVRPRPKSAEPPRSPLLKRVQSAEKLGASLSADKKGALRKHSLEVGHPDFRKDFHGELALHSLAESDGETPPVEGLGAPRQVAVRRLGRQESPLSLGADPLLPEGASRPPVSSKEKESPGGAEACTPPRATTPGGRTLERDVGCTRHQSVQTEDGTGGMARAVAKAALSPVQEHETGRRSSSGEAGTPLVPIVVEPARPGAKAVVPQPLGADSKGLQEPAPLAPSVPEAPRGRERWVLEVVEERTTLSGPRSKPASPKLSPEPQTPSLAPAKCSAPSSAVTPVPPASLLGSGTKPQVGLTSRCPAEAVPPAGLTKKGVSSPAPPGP

[6] = target: T1, NUAK family SNF1-like kinase 1 (Homo sapiens) (UniProt O60285); assay: Selectivity interaction (KinomeScan (DiscoverX)) EUB0000618a NUAK1; details: at 10 µM
T1 sequence (whole entry): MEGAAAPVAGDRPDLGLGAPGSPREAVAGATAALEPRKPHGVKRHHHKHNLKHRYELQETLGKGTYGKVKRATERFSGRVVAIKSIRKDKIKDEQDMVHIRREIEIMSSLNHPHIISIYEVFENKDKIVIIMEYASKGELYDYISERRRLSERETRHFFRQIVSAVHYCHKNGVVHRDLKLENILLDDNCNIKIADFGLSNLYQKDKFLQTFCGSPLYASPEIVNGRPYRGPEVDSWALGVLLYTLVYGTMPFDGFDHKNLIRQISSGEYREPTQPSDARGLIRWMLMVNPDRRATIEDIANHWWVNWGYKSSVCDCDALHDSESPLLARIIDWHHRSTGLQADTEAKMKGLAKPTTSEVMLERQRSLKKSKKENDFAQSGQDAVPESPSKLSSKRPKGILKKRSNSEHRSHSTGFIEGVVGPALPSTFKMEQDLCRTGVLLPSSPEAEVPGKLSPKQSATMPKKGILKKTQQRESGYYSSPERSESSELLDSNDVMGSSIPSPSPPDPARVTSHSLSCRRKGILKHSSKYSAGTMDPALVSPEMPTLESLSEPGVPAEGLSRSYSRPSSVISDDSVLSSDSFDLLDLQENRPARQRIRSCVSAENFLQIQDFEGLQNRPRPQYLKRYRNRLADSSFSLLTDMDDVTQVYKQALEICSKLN

[7] = target: Calcium/calmodulin-dependent protein kinase kinase 1 (Homo sapiens) (UniProt Q8N5S9); assay: Selectivity interaction (Ambit KINOMEscan and KiNATiv profiling in Jurkat cells) EUB0000090b CAMKK1; assay type: cell-based; details: at 1 µM
Chain of Calcium/calmodulin-dependent protein kinase kinase 1 (Homo sapiens) (Q8N5S9 whole entry, looked up): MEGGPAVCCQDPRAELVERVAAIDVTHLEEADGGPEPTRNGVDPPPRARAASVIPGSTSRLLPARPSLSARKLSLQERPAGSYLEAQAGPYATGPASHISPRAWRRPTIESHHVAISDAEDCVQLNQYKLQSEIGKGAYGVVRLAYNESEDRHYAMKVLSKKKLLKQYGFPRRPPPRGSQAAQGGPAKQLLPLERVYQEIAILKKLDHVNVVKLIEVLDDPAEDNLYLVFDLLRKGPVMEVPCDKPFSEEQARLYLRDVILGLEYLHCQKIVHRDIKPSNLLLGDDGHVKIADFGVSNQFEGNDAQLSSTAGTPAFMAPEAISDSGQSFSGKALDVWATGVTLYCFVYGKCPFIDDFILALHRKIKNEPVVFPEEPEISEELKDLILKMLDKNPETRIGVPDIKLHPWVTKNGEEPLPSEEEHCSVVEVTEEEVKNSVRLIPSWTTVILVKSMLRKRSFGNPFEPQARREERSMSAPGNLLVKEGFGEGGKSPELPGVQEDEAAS

[8] = target: T2, Serine/threonine-protein kinase 36 (Homo sapiens) (UniProt Q9NRP7); assay: Selectivity interaction (KinomeScan (DiscoverX)) EUB0001619a STK36; details: at 1 µM
T2 sequence (whole entry): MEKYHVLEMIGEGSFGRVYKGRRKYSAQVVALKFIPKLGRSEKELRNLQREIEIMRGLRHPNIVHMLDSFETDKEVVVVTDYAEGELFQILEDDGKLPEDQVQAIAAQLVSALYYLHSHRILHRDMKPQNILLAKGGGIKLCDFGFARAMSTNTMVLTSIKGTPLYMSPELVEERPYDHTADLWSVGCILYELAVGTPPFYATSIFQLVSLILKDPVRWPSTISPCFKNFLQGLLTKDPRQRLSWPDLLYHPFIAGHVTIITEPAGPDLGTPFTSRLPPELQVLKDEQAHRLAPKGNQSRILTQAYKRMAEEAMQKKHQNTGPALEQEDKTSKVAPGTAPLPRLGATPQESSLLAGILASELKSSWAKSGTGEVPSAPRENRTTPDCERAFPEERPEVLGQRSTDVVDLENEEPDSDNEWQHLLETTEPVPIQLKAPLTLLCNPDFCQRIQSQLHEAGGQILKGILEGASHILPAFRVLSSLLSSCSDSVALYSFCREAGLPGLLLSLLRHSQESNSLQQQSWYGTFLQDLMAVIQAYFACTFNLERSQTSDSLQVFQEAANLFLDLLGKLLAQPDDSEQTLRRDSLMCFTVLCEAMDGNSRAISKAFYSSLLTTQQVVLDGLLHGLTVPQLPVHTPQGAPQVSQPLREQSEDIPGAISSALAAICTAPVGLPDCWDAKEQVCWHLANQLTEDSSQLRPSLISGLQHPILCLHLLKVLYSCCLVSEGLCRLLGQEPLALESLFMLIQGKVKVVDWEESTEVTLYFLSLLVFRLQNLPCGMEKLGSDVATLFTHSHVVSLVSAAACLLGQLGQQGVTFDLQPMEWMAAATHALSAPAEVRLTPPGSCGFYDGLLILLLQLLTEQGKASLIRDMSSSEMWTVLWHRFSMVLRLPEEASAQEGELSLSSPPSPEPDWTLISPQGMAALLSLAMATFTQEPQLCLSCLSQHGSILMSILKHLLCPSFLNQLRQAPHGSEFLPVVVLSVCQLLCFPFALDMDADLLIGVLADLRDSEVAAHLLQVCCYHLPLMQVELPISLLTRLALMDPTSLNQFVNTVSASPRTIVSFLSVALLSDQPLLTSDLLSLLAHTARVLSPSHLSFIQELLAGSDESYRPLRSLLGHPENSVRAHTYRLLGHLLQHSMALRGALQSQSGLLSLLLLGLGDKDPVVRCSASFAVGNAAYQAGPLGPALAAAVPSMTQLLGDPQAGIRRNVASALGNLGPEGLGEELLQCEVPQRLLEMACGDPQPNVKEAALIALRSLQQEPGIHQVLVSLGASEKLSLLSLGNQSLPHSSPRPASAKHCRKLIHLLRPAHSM

Chain of Proto-oncogene tyrosine-protein kinase ROS (Homo sapiens) (P08922 whole entry): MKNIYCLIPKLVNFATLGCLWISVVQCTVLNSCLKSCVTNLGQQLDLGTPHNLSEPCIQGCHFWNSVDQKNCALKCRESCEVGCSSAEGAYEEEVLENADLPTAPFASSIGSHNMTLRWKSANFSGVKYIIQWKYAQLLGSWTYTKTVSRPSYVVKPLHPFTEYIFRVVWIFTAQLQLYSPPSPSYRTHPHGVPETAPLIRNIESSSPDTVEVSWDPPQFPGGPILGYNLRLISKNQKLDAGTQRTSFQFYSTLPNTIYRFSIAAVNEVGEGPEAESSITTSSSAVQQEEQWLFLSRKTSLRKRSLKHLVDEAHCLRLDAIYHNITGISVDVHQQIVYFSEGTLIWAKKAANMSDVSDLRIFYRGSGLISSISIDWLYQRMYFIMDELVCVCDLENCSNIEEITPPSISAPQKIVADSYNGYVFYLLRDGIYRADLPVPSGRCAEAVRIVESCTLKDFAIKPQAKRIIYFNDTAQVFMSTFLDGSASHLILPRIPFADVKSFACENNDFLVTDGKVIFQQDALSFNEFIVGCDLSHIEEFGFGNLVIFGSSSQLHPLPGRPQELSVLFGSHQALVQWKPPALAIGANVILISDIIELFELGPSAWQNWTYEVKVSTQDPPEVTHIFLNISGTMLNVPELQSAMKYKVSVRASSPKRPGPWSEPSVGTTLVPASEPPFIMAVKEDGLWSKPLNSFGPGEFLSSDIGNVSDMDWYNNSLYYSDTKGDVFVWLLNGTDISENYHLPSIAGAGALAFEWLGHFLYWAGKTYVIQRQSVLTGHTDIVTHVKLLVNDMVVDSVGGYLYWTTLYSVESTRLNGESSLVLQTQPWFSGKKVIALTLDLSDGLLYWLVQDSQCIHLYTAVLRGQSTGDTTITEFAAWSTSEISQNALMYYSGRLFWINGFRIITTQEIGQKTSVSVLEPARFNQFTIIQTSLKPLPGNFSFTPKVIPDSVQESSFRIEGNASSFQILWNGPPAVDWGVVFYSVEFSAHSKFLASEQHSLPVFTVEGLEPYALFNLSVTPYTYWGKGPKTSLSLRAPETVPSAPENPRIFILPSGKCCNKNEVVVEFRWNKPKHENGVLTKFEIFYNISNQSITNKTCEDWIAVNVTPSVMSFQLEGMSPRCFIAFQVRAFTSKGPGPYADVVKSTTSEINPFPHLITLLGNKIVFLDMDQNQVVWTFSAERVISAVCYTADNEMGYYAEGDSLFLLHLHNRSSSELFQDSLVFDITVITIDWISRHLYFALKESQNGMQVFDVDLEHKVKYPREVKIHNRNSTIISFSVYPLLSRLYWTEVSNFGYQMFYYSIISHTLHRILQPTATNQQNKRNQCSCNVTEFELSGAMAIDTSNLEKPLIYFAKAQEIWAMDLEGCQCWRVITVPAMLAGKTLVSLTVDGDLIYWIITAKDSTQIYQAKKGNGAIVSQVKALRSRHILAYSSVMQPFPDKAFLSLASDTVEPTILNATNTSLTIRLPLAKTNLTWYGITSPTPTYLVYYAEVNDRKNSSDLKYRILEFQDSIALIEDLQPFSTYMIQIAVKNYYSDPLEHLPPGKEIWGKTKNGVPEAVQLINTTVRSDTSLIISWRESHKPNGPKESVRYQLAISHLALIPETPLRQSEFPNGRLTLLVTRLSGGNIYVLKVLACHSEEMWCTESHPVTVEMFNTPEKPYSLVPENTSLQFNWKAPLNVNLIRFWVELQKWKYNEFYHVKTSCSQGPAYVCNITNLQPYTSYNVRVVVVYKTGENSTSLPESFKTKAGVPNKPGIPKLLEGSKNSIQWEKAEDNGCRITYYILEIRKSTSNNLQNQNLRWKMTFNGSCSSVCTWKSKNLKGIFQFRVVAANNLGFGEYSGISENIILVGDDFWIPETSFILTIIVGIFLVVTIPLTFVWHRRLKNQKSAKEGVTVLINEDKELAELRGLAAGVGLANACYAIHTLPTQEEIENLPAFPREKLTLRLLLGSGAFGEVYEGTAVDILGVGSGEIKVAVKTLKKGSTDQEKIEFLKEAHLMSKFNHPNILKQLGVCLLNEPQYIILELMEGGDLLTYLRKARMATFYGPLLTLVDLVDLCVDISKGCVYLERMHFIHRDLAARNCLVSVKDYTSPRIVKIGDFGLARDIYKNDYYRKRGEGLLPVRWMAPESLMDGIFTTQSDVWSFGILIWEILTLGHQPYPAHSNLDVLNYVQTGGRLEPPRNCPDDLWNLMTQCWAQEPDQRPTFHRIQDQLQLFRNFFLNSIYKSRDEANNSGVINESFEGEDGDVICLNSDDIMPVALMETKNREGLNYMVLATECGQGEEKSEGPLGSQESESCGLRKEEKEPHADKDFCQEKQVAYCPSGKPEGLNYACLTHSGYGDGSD
Chain of Serine/threonine-protein kinase 32B (Homo sapiens) (Q9NY57 whole entry): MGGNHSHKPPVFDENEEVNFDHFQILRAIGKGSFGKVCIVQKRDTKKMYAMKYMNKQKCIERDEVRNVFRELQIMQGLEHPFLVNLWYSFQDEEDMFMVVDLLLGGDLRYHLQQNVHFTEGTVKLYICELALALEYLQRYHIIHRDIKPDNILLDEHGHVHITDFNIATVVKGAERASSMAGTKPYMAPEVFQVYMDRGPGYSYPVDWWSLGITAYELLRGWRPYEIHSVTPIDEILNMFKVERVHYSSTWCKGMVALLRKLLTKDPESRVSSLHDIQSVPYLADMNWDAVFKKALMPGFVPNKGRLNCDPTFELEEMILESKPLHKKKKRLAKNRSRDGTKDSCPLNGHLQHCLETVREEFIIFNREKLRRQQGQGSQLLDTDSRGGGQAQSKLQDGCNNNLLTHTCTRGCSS

**Q.** How did the % of control ([1]; at 1 µM) turn out when C=CC(=O)Nc1cccc(C(=O)Nc2ccc(Nc3cc(-c4[nH]c(SC)nc4C)ccn3)cc2)c1 was run?
**A.** The % of control was 87%.

**Q.** What about the % of control ([1]; at 5 µM) of the same compound?
**A.** The % of control was 74%.

**Q.** Cn1cc(-n2cnc3c(NCc4nc5cc(Cl)c(Cl)cc5[nH]4)nc(N4CCOCC4)nc32)cn1 was tested. Which % of inhibition [2] did it give?
**A.** Its % of inhibition is -8.62%.

**Q.** Which results are given for COc1cc(Nc2nc(C)cc(-c3cnn4nc(OC)ccc34)n2)cc(C(F)(F)F)c1?
**A.** % of control [3]: 77%; % of control [4]: 82%

**Q.** Which results are given for C=CC(=O)Nc1cc(-n2c(=O)ccc3cnc4ccc(-c5ccc(NS(C)(=O)=O)cc5)cc4c32)ccc1C?
**A.** % of control ([5]; at 1 µM): 100%; % of control ([5]; at 10 µM): 94%

**Q.** Which % of control [6] does the source give for O[C@H]1CC[C@H](Nc2ncc3nc(Nc4c(F)cc(F)cc4F)n([C@H]4CCOC4)c3n2)CC1 here?
**A.** The % of control was 97%.

**Q.** How did the % of control [7] turn out when CN(C)C/C=C/C(=O)Nc1ccc(C(=O)N2CCCC(Nc3ncc(Cl)c(-c4c[nH]c5ccccc45)n3)C2)cc1 (stereo not given) was run?
**A.** The % of control was 92%.

**Q.** For N#Cc1cccc(-c2c[nH]c3ncnc(N4CCOCC4)c23)c1, which % of control [8] is on record?
**A.** The % of control was 100%.
